Measurements as given in the NIST ThermoML archive (doi:10.1016/j.jct.2007.07.005).

Assay: xn = mol fraction of the nth substance listed
Conditions: Fluid (supercritical or subcritical phases), vibrating tube

CCCCCO [pentan-1-ol] + O=C=O
Conditions	mass density [kg/m3]
362.59 K, 3010 kPa, x2 = 0	762.29
362.59 K, 3998 kPa, x2 = 0	763.28
362.59 K, 5006 kPa, x2 = 0	764.25
362.59 K, 6013 kPa, x2 = 0	765.23
362.59 K, 7014 kPa, x2 = 0	766.21
362.59 K, 8007 kPa, x2 = 0	767.16
362.59 K, 9020 kPa, x2 = 0	768.1
362.59 K, 10006 kPa, x2 = 0	769.02
362.59 K, 10991 kPa, x2 = 0	769.93
362.59 K, 12025 kPa, x2 = 0	770.87
362.59 K, 13008 kPa, x2 = 0	771.76
362.59 K, 13998 kPa, x2 = 0	772.62
362.59 K, 15017 kPa, x2 = 0	773.51
362.59 K, 16000 kPa, x2 = 0	774.37
362.59 K, 17013 kPa, x2 = 0	775.24
362.59 K, 18032 kPa, x2 = 0	776.11
362.59 K, 19003 kPa, x2 = 0	776.9
362.59 K, 20030 kPa, x2 = 0	777.77
362.59 K, 20987 kPa, x2 = 0	778.55
362.59 K, 22033 kPa, x2 = 0	779.4
362.59 K, 23000 kPa, x2 = 0	780.2
362.59 K, 24031 kPa, x2 = 0	781.02
362.59 K, 25026 kPa, x2 = 0	781.82
362.64 K, 10025 kPa, x2 = 0.3624	777.81
362.64 K, 11003 kPa, x2 = 0.3624	779.19
362.64 K, 12003 kPa, x2 = 0.3624	780.55
362.64 K, 12022 kPa, x2 = 0.4651	773.96
362.64 K, 13017 kPa, x2 = 0.3624	781.9
362.64 K, 13060 kPa, x2 = 0.4651	776.14
362.64 K, 14013 kPa, x2 = 0.3624	783.21
362.64 K, 14031 kPa, x2 = 0.4651	778.14
362.64 K, 15047 kPa, x2 = 0.4651	780.2
362.64 K, 15050 kPa, x2 = 0.3624	784.56
362.64 K, 16009 kPa, x2 = 0.3624	785.79
362.64 K, 16038 kPa, x2 = 0.4651	782.15
362.64 K, 17020 kPa, x2 = 0.4651	784.05
362.64 K, 17038 kPa, x2 = 0.3624	787.08
362.64 K, 17996 kPa, x2 = 0.3624	788.26
362.64 K, 18020 kPa, x2 = 0.4651	785.95
362.64 K, 19025 kPa, x2 = 0.3624	789.49
362.64 K, 19043 kPa, x2 = 0.4651	787.85
362.64 K, 20005 kPa, x2 = 0.3624	790.66
362.64 K, 20038 kPa, x2 = 0.4651	789.76
362.64 K, 21006 kPa, x2 = 0.3624	791.85
362.64 K, 21016 kPa, x2 = 0.4651	791.43
362.64 K, 22040 kPa, x2 = 0.3624	793.05
362.64 K, 22046 kPa, x2 = 0.4651	793.2
362.64 K, 22994 kPa, x2 = 0.3624	794.14
362.64 K, 23026 kPa, x2 = 0.4651	794.9
362.64 K, 24043 kPa, x2 = 0.3624	795.34
362.64 K, 24056 kPa, x2 = 0.4651	796.64
362.64 K, 25004 kPa, x2 = 0.3624	796.42
362.66 K, 3020 kPa, x2 = 0.0816	763.81
362.66 K, 3996 kPa, x2 = 0.0816	764.91
362.66 K, 4993 kPa, x2 = 0.0816	765.97
362.66 K, 6014 kPa, x2 = 0.0816	767.08
362.66 K, 7003 kPa, x2 = 0.0816	768.13
362.66 K, 8000 kPa, x2 = 0.0816	769.18
362.66 K, 9015 kPa, x2 = 0.0816	770.22
362.66 K, 10003 kPa, x2 = 0.0816	771.21
362.66 K, 11015 kPa, x2 = 0.0816	772.24
362.66 K, 12001 kPa, x2 = 0.0816	773.21
362.66 K, 13063 kPa, x2 = 0.0816	774.24
362.66 K, 14005 kPa, x2 = 0.0816	775.13
362.66 K, 15014 kPa, x2 = 0.0816	776.09
362.66 K, 16024 kPa, x2 = 0.9216	573.29
362.66 K, 16035 kPa, x2 = 0.0816	777.05
362.66 K, 17029 kPa, x2 = 0.0816	777.98
362.66 K, 17029 kPa, x2 = 0.9216	602.35
362.66 K, 18005 kPa, x2 = 0.0816	778.87
362.66 K, 18035 kPa, x2 = 0.9216	625.49
362.66 K, 19005 kPa, x2 = 0.9216	644.28
362.66 K, 19061 kPa, x2 = 0.0816	779.82
362.66 K, 19993 kPa, x2 = 0.0816	780.66
362.66 K, 20065 kPa, x2 = 0.9216	661.85
362.66 K, 21022 kPa, x2 = 0.0816	781.57
362.66 K, 21055 kPa, x2 = 0.9216	676.21
362.66 K, 22016 kPa, x2 = 0.9216	688.72
362.66 K, 22027 kPa, x2 = 0.0816	782.43
362.66 K, 23003 kPa, x2 = 0.0816	783.28
362.66 K, 23071 kPa, x2 = 0.9216	701.08
362.66 K, 23748 kPa, x2 = 0.9216	708.43
362.66 K, 23994 kPa, x2 = 0.0816	784.14
362.66 K, 25028 kPa, x2 = 0.0816	785.05
362.67 K, 16036 kPa, x2 = 0.7274	743.56
362.67 K, 17030 kPa, x2 = 0.7274	749.82
362.67 K, 18000 kPa, x2 = 0.7274	755.36
362.67 K, 19028 kPa, x2 = 0.7274	760.67
362.67 K, 20033 kPa, x2 = 0.7274	765.6
362.67 K, 21074 kPa, x2 = 0.7274	770.32
362.67 K, 22015 kPa, x2 = 0.7274	774.34
362.67 K, 23077 kPa, x2 = 0.7274	778.68
362.67 K, 24033 kPa, x2 = 0.7274	782.39
362.67 K, 25155 kPa, x2 = 0.7274	786.55
362.76 K, 15032 kPa, x2 = 0.6054	774.3
362.76 K, 16035 kPa, x2 = 0.6054	777.11
362.76 K, 17040 kPa, x2 = 0.6054	779.89
362.76 K, 18044 kPa, x2 = 0.6054	782.5
362.76 K, 19042 kPa, x2 = 0.6054	785.04
362.76 K, 20068 kPa, x2 = 0.6054	787.6
362.76 K, 21079 kPa, x2 = 0.6054	790.03
362.76 K, 22029 kPa, x2 = 0.6054	792.27
362.76 K, 23044 kPa, x2 = 0.6054	794.59
362.76 K, 24071 kPa, x2 = 0.6054	796.88
362.76 K, 25065 kPa, x2 = 0.6054	799.05
362.79 K, 7017 kPa, x2 = 0.1347	768.35
362.79 K, 7974 kPa, x2 = 0.1347	769.41
362.79 K, 9023 kPa, x2 = 0.1347	770.53
362.79 K, 9999 kPa, x2 = 0.1347	771.53
362.79 K, 10899 kPa, x2 = 0.1347	772.5
362.79 K, 12022 kPa, x2 = 0.1347	773.68
362.79 K, 13018 kPa, x2 = 0.1347	774.7
362.79 K, 14016 kPa, x2 = 0.1347	775.72
362.79 K, 15031 kPa, x2 = 0.1347	776.75
362.79 K, 16022 kPa, x2 = 0.1347	777.7
362.79 K, 17016 kPa, x2 = 0.1347	778.71
362.79 K, 18017 kPa, x2 = 0.1347	779.67
362.79 K, 19013 kPa, x2 = 0.1347	780.6
362.79 K, 20017 kPa, x2 = 0.1347	781.57
362.79 K, 21040 kPa, x2 = 0.1347	782.53
362.79 K, 22011 kPa, x2 = 0.1347	783.41
362.79 K, 23022 kPa, x2 = 0.1347	784.34
362.79 K, 24039 kPa, x2 = 0.1347	785.29
362.79 K, 25030 kPa, x2 = 0.1347	786.19
